From patent publication US20080058349A1, “New Compounds 318” (Astrazeneca AB, priority 2006, published 2008) come the findings set out here.

Counter-ions that a name gives are not always drawn.

For the first assay, the target named is T1, human β-Secretase (Homo sapiens, UniProt P56817).
T1 construct: The soluble part of the human β-Secretase (AA 1-AA 460) was cloned; made in house
T1 sequence (P56817 22-460): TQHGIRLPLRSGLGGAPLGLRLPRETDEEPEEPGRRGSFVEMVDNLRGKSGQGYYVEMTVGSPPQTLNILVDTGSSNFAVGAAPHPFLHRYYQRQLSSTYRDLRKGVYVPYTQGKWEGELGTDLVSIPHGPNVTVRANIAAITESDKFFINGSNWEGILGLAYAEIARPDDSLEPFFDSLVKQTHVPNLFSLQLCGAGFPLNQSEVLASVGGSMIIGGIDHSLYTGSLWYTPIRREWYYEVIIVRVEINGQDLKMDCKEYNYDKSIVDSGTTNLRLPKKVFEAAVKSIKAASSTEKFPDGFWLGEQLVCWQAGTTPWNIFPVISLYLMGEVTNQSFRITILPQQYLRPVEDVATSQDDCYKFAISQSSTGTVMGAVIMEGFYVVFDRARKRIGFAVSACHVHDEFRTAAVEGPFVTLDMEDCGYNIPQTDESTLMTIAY
The experiment in a line: TR-FRET assay.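 Also: sBACE-Fc from HEK 293 cells, compound preincubated 10 min, then 15 min substrate reaction at RT in darkness, 5% DMSO, DMSO control as 100% and enzyme-free wells as 0%.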 The note with it: soluble human β-Secretase (sBACE-Fc), substrate (Europium)CEVNLDAEFK(Qsy7) 100 nM, pH 4.5. Format: biochemical. For orientation: Time-resolved FRET reads energy transfer from a long-lived donor to a nearby acceptor.
For orientation: IC50 means the concentration that gives 50% inhibition. A lower IC50 goes with greater potency in that assay. On to “4-[5-Amino-7-(3′,5′-dichlorobiphenyl-3-yl)-2,7-dihydro-3H-imidazo[1,5-a]imidazol-7-yl]phenyl methanesulfonate 0.25 acetate [Example 61]”, for which 146 nM corresponded to half-maximal inhibition (IC50).

Staying with this assay, now noted: soluble human β-Secretase (sBACE-Fc), substrate (Europium)[…](Qsy7) 100 nM, pH 4.5.
`COc1ccc(C2(c3cccc(-c4cc(Cl)cc(Cl)c4)c3)N=C(N)N3CC(O)CN=C32)cc1` (mixture of isomers) [Example 125, 6-Amino-8-(3′,5′-dichlorobiphenyl-3-yl)-8-(4-methoxyphenyl)-2,3,4,8-tetrahydroimidazo[1,5-a]pyrimidin-3-ol] had an IC50 of 22 nM.

Compound `COc1ccc(C2(c3cccc(-c4cc(Cl)cc(Cl)c4)c3)N=C(N)N3CC(OC)CN=C32)cc1` (mixture of isomers) [Example 126, 8-(3′,5′-Dichlorobiphenyl-3-yl)-3-methoxy-8-(4-methoxyphenyl)-2,3,4,8-tetrahydroimidazo[1,5-a]pyrimidin-6-amine] yielded an IC50 of 41 nM. The same measure, in the same setting: with `COc1ccc(C2(c3cccc(-c4cc(Cl)cc(Cl)c4)c3)N=C(N)N3CC(C#N)CN=C32)cc1` (mixture of isomers) [Example 127, 6-Amino-8-(3′,5′-dichlorobiphenyl-3-yl)-8-(4-methoxyphenyl)-2,3,4,8-tetrahydroimidazo[1,5-a]pyrimidine-3-carbonitrile] the figure was 27 nM; with `COc1ccc(C2(c3cccc(-c4cc(Cl)cc(Cl)c4)c3)N=C(N)N3CC(C(=O)O)CN=C32)cc1` (mixture of isomers) [Example 128, 6-Amino-8-(3′,5′-dichlorobiphenyl-3-yl)-8-(4-methoxyphenyl)-2,3,4,8-tetrahydroimidazo[1,5-a]pyrimidine-3-carboxylic acid], 34 nM. Still for that read-out and setting: with `COc1ccc(C2(c3cccc(-c4cc(Cl)cc(Cl)c4)c3)N=C(N)N3CC(NC(C)=O)CN=C32)cc1` (mixture of isomers) [Example 129, N-[6-amino-8-(3′,5′-dichlorobiphenyl-3-yl)-8-(4-methoxyphenyl)-2,3,4,8-tetrahydroimidazo[1,5-a]pyrimidin-3-yl]acetamide] the figure was 21 nM; with `COc1ccc(C2(c3cccc(-c4cc(Cl)cc(Cl)c4)c3)N=C(N)N3CC(NS(C)(=O)=O)CN=C32)cc1` (mixture of isomers) [Example 130, N-[6-Amino-8-(3′,5′-dichlorobiphenyl-3-yl)-8-(4-methoxyphenyl)-2,3,4,8-tetrahydroimidazo[1,5-a]pyrimidin-3-yl]methanesulfonamide], 17 nM; with `COc1ccc(C2(c3cccc(-c4cc(Cl)cc(Cl)c4)c3)N=C(N)N3C2=NCC[C@H]3C(=O)O)cc1` (mixture of isomers) [Example 131, (4S)-6-amino-8-(3′,5′-dichlorobiphenyl-3-yl)-8-(4-methoxyphenyl)-2,3,4,8-tetrahydroimidazo[1,5-a]pyrimidine-4-carboxylic acid], 159 nM. For the compound `COc1cccc(-c2cccc(C3(c4ccccc4)N=C(N)N4CCCN=C43)c2)c1` (stereo not shown) [Example 30, 8-(3′-Methoxybiphenyl-3-yl)-8-phenyl-2,3,4,8-tetrahydroimidazo[1,5-a]pyrimidin-6-amine hydrochloride], the IC50 was 510 nM. In turn, `NC1=NC(c2ccccc2)(c2cccc(-c3cccc(Cl)c3)c2)C2=NCCCN12` (stereo not shown) [Example 31, 8-(3′-Chlorobiphenyl-3-yl)-8-phenyl-2,3,4,8-tetrahydroimidazo[1,5-a]pyrimidin-6-amine hydrochloride] came in with an IC50 of 255 nM. This IC50 lies about 2-fold lower than the previous one.

Turning to `NC1=NC(c2ccc(OS(=O)(=O)C(F)(F)F)cc2)(c2cccc(-c3cccc(Cl)c3)c2)C2=NCCN12` (stereo not shown) [Example 96, 4-[5-Amino-7-(3′-chlorobiphenyl-3-yl)-2,7-dihydro-3H-imidazo[1,5-a]imidazol-7-yl]phenyl trifluoromethanesulfonate 0.75 acetate], the IC50 is 227 nM. On the same count and under the same terms, with `NC1=NC(c2ccc(OS(=O)(=O)C(F)(F)F)cc2)(c2cccc(-c3cccc(Cl)c3)c2)C2=NCCCN12` (stereo not shown) [Example 99, 4-[6-Amino-8-(3′-chlorobiphenyl-3-yl)-2,3,4,8-tetrahydroimidazo[1,5-a]pyrimidin-8-yl]phenyl trifluoromethanesulfonate acetate] the figure was 113 nM.

For the compound `COc1ccc(F)c(-c2cccc(C3(c4ccccc4)N=C(N)N4CCCN=C43)c2)c1` (stereo not shown) [Example 100, 8-(2′-Fluoro-5′-methoxybiphenyl-3-yl)-8-phenyl-2,3,4,8-tetrahydroimidazo[1,5-a]pyrimidin-6-amine hydrochloride], the IC50 amounted to 305 nM.

Take `NC1=NC(c2ccccc2)(c2cccc(-c3cc(Cl)ccc3F)c2)C2=NCCCN12` (stereo not shown) [Example 101, 8-(5′-Chloro-2′-fluorobiphenyl-3-yl)-8-phenyl-2,3,4,8-tetrahydroimidazo[1,5-a]pyrimidin-6-amine hydrochloride]: the IC50 was 378 nM. This IC50 and that of the compound before are within 1.5-fold of each other. Compound `NC1=NC(c2ccccc2)(c2cccc(-c3cc(Cl)cc(Cl)c3)c2)C2=NCCCN12` (stereo not shown) [Example 102, 8-(3′,5′-Dichlorobiphenyl-3-yl)-8-phenyl-2,3,4,8-tetrahydroimidazo[1,5-a]pyrimidin-6-amine hydrochloride] came in with an IC50 of 149 nM. In the case of `COc1cc(OS(C)(=O)=O)cc(-c2cccc(C3(c4ccccc4)N=C(N)N4CCCN=C43)c2)c1` (stereo not shown) [Example 103, 3′-(6-Amino-8-phenyl-2,3,4,8-tetrahydroimidazo[1,5-a]pyrimidin-8-yl)-5-methoxybiphenyl-3-yl methanesulfonate hydrochloride], inhibition was half-maximal at 727 nM (IC50).

In turn, `COc1ccc(C2(c3cccc(-c4cc(Cl)cc(Cl)c4)c3)N=C(N)N3CC(S(C)(=O)=O)CN=C32)cc1` (stereo not shown) [Example 124, 8-(3′,5′-Dichlorobiphenyl-3-yl)-8-(4-methoxyphenyl)-3-(methylsulfonyl)-2,3,4,8-tetrahydroimidazo[1,5-a]pyrimidin-6-amine 2.0 acetate] came in with an IC50 of 39 nM. On the same count and under the same terms, next, `COc1ccc(C2(c3cccc(-c4cc(Cl)cc(Cl)c4)c3)N=C(N)N3CC(F)(F)CN=C32)cc1` (stereo not shown) [Example 132, 8-(3′,5′-Dichlorobiphenyl-3-yl)-3,3-difluoro-8-(4-methoxyphenyl)-2,3,4,8-tetrahydroimidazo[1,5-a]pyrimidin-6-amine 0.75 acetate]: 32 nM. Still for that read-out and setting: with `COc1ccc(C2(c3cccc(-c4cc(Cl)cc(Cl)c4)c3)N=C(N)N3CC(F)CN=C32)cc1` (stereo not shown) [Example 136, 8-(3′,5′-Dichlorobiphenyl-3-yl)-3-fluoro-8-(4-methoxyphenyl)-2,3,4,8-tetrahydroimidazo[1,5-a]pyrimidin-6-amine 1.5 acetate] the figure was 34 nM; with `CS(=O)(=O)Oc1cccc(C2(c3cccc(-c4cc(C(F)(F)F)cc(C(F)(F)F)c4)c3)N=C(N)N3CCCN=C32)c1` (stereo not shown) [Example 176, 3-[6-Amino-8-[3′,5′-bis(trifluoromethyl)biphenyl-3-yl]-2,3,4,8-tetrahydroimidazo[1,5-a]pyrimidin-8-yl]phenyl methanesulfonate], 1200 nM; with `NC1=NC(c2cccc(OS(=O)(=O)C(F)(F)F)c2)(c2cccc(-c3cccc(Cl)c3)c2)C2=NCCCN12` (stereo not shown) [Example 177, 3-[6-Amino-8-(3′-chlorobiphenyl-3-yl)-2,3,4,8-tetrahydroimidazo[1,5-a]pyrimidin-8-yl]phenyl trifluoromethanesulfonate], 246 nM. Still for that read-out and setting: next, `COc1cccc(C2(c3cccc(-c4cc(Cl)cc(Cl)c4)c3)N=C(N)N3CCCN=C32)c1` (stereo not shown) [Example 178, 8-(3′,5′-Dichlorobiphenyl-3-yl)-8-(3-methoxyphenyl)-2,3,4,8-tetrahydroimidazo[1,5-a]pyrimidin-6-amine]: 92 nM; `CS(=O)(=O)Oc1cccc(C2(c3cccc(-c4cc(Cl)cc(Cl)c4)c3)N=C(N)N3CCCN=C32)c1` (stereo not shown) [Example 181, 3-[6-Amino-8-(3′,5′-dichlorobiphenyl-3-yl)-2,3,4,8-tetrahydroimidazo[1,5-a]pyrimidin-8-yl]phenyl methanesulfonate]: 106 nM.

Turning to `CS(=O)(=O)Oc1cccc(C2(c3cccc(-c4cccc(Cl)c4)c3)N=C(N)N3CCCN=C32)c1` (stereo not shown) [Example 182, 3-[6-Amino-8-(3′-chlorobiphenyl-3-yl)-2,3,4,8-tetrahydroimidazo[1,5-a]pyrimidin-8-yl]phenyl methanesulfonate], 285 nM corresponded to half-maximal inhibition (IC50). Regarding `COc1cccc(-c2cccc(C3(c4cccc(OS(C)(=O)=O)c4)N=C(N)N4CCCN=C43)c2)c1` (stereo not shown) [Example 183, 3-[6-Amino-8-(3′-methoxybiphenyl-3-yl)-2,3,4,8-tetrahydroimidazo[1,5-a]pyrimidin-8-yl]phenyl methanesulfonate], half-maximal inhibition (IC50) required 252 nM. The IC50 values of the last two compounds are within 1.5-fold of each other. The same measure, in the same setting: next, `CCCS(=O)(=O)Oc1cccc(C2(c3cccc(-c4cc(Cl)cc(Cl)c4)c3)N=C(N)N3CCCN=C32)c1` (stereo not shown) [Example 184, 3-[6-Amino-8-(3′,5′-dichlorobiphenyl-3-yl)-2,3,4,8-tetrahydroimidazo[1,5-a]pyrimidin-8-yl]phenyl propane-1-sulfonate]: 69 nM; `CCCS(=O)(=O)Oc1cccc(C2(c3cccc(-c4cccc(OC)c4)c3)N=C(N)N3CCCN=C32)c1` (stereo not shown) [Example 185, 3-[6-Amino-8-(3′-methoxybiphenyl-3-yl)-2,3,4,8-tetrahydroimidazo[1,5-a]pyrimidin-8-yl]phenyl propane-1-sulfonate]: 106 nM; `NC1=NC(c2cccc(OS(=O)(=O)C3CC3)c2)(c2cccc(-c3cc(Cl)cc(Cl)c3)c2)C2=NCCCN12` (stereo not shown) [Example 186, 3-[6-Amino-8-(3′,5′-dichlorobiphenyl-3-yl)-2,3,4,8-tetrahydroimidazo[1,5-a]pyrimidin-8-yl]phenyl cyclopropanesulfonate]: 51 nM.
